The values below come from patent US5922748A, “Indole derivatives as 5-HT agonists” (Glaxo Wellcome Inc., priority 1994, dated 1999).

Where two headings read alike, the source gives them in different places.

Assay [1] deals with T1, "5-HT1 -like" receptor mediating smooth muscle contraction (Oryctolagus cuniculus, UniProt P49144).
T1 construct: Right and left lateral saphenous veins were obtained from male New Zealand White Rabbits; from tissue; host or cells: rabbit lateral saphenous vein ring segments
T1 sequence (P49144 whole entry): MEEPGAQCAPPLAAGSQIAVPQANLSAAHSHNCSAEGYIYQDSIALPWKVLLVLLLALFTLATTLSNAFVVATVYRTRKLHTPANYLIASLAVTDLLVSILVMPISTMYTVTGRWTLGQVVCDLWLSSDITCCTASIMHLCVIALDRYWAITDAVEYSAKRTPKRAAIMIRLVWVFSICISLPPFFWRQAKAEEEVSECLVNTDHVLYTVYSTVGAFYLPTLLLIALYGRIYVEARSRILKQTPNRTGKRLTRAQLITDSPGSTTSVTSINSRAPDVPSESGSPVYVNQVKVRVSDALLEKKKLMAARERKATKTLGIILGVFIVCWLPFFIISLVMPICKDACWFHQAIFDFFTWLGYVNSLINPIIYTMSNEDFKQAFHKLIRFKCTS
The experiment in a line: Rabbit Saphenous Vein Assay (contraction of isolated ring segments). The class given is cell-based, male New Zealand White Rabbits. To be noted: antagonism, given where compounds were found to be antagonists.

In assay [2] the target is T1, "5-HT1 -like" receptor mediating smooth muscle contraction. Described as above. To be noted: for Emax: read-out: (α). The format is cell-based, male New Zealand White Rabbits. Here is the method:
A: Rabbit Saphenous Vein Assay
Compounds of formula (I) prepared in Synthetic Examples 1 to 17 were each tested for their activity as agonists […] for the "5-HT1 -like" receptor mediating smooth muscle contraction by the following method.
[…]. Cocaine (30 μM) was present in the Krebs' solution throughout the experiment to prevent the uptake of amines by sympathetic neurones. The Krebs' solution was maintained at 37° C. and continually gassed with 95% oxygen/5% carbon dioxide. Increases in tissue isometric force were measure using Grass FT03C force displacement transducers and recorded on a Gould BD-212 pen recorder.
A force of 1.0 g was applied to each preparation and re-established twice during a subsequent period of 30 minutes.
Agonist activity was assessed by […] additions of the test compound, its concentration being increased in 0.5 log10 unit increments until further additions caused no further change in tissue force. In each experiment, the activity of the test compound was compared to the activity of 5-HT.

The target of another assay is T2, "5-HT1 -like" receptor (Bos taurus, UniProt F1MGM3).
T2 construct: Membranes were prepared from homogenates of calf caudate nucleus; from tissue; host or cells: calf caudate nucleus membranes
T2 sequence (F1MGM3 1-403): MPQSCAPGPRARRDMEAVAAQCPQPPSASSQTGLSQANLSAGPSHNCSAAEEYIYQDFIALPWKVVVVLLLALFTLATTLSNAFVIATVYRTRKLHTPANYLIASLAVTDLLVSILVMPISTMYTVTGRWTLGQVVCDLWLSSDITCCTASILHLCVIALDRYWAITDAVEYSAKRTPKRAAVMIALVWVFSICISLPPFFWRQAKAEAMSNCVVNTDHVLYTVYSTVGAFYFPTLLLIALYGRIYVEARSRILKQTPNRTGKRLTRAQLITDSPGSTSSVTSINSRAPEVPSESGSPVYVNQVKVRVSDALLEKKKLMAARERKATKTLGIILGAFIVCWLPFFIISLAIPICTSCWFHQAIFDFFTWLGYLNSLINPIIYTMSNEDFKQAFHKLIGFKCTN
Put plainly: Calf Caudate Assay (competition binding with [3H]-5HT, calf caudate nucleus membranes). Particulars: 3.5 nM [3H]-5HT with 15 μM mesulergine and 15 μM 8-OH-DPAT, text says pIC50 converted by Cheng-Prusoff.

Where [3] appears, read: agonism, rabbit saphenous vein rings, 37° C., pH 7.4, compared to 5-HT, read-out: pA50 (converted).
The mark [4] stands for this setting: value in parentheses after pA50 in Table 1, rabbit saphenous vein, compared to 5-HT.

Compound `CN(C)[C@H]1C[C@H](c2c[nH]c3ccc(CCN4C(=O)NC(C)(C)C4=O)cc32)C1` [Example 5] showed a Kb in assay [1] of 891 nM. In the case of `Cc1nc(Cc2ccc3[nH]cc([C@H]4C[C@H](N(C)C)C4)c3c2)n[nH]1` [Example 28, 3-methyl-5-[3-(trans-3-dimethylaminocyclobutyl)-1H-indol-5-ylmethl]1,2,4-triazole], in assay [1], the Kb is 6610 nM. Take `CN(C)[C@H]1C[C@H](c2c[nH]c3ccc(C(N)=O)cc32)C1` [Example 14, 5-carboxamido-3-(trans-3-dimethylaminocyclobutyl)-1H-indole]: the EC50 in assay [2] is 562 nM. Further, the Emax in assay [2] (rabbit) stood at 52%. Take `Cc1noc(Cc2ccc3[nH]cc([C@H]4C[C@H](N(C)C)C4)c3c2)n1` [Example 27, 3-methyl-5-[3-(trans-3-dimethylaminocyclobutyl)-1H-indol-5-ylmethyl] 1,2,4-oxadiazole]: the Kb in assay [1] was 759000 nM. Take `CN(C)[C@H]1C[C@H](c2c[nH]c3ccc(CCN4C(=O)c5ccccc5C4=O)cc32)C1` [Example 24, 2-{2-[3-(trans-3-dimethylaminocyclobutyl)-1H-indol-5-yl]ethyl} phthalamide]: the EC50 in assay [2] (setting [3]) is 6170 nM. For the same compound, the Emax in assay [2] (setting [4]) stood at 48%. For `CN1C(=O)OC[C@H]1Cc1ccc2[nH]cc([C@H]3C[C@H](N(C)C)C3)c2c1` [Example 13, 4-[3-(trans-3-dimethylaminocyclobutyl)-1H-indol-5-ylmethyl]-3-methyl(4R)oxazolidin-2-one], in assay [2] (setting [3]), the EC50 was 14100 nM. In addition, the Emax in assay [2] (setting [4]) is 38%.

For the compound `CN(C)[C@H]1C[C@H](c2c[nH]c3ccc(CC(N)=O)cc32)C1` [Example 25, 3-[trans-3-dimethylaminocyclobutyl]-1H-indol-5-yl acetamide], the Kb in assay [2] is 16600 nM. `CN(C)[C@H]1C[C@@H](c2c[nH]c3ccc(C[C@H]4COC(=O)N4)cc32)C1` [Example 15]: the EC50 in assay [2] (setting [3]) was 7080 nM. Further, the Emax in assay [2] (setting [4]) amounted to 29%. With `N[C@H]1C[C@@H](c2c[nH]c3ccc(C[C@H]4COC(=O)N4)cc32)C1` [Example 1 (cis), 4-[3-(cis-3-aminocyclobutyl)-5-indolymethyl]-(4S)-oxazolidin-2-one acetate], in assay [2] (setting [3]), the EC50 is 1580 nM. Besides, the Emax in assay [2] (rabbit) amounted to 76%.

In turn, `CN(C)[C@H]1C[C@H](c2c[nH]c3ccc(C[C@@H]4COC(=O)N4)cc32)C1` [Example 11, 4-[3-(trans-3-dimethylaminocyclobutyl)-1H-indol-5-ylmethyl]-(4R)oxazolidin-2-one] showed a Kb in assay [1] of 11200 nM. The compound `N[C@H]1C[C@H](c2c[nH]c3ccc(C[C@H]4COC(=O)N4)cc32)C1` [Example 1 (trans), 4-[3-(trans-3-aminocyclobutyl)-5-indolylmethyl)-(4S)-oxazolidin-2-one acetate] gave an EC50 in assay [2] of 380 nM. Further, the Emax in assay [2] (rabbit) worked out at 78%. With `CN(C)[C@H]1C[C@H](c2c[nH]c3ccc(CN4C(=O)CNC4=O)cc32)C1` [Example 9, 3-[3-(trans-3-dimethylaminocyclobutyl)-1H-indol-5-ylmethyl]imidazolidin-2,4-dione], in assay [1], the Kb was 9330 nM. The compound `CN(C)[C@H]1C[C@H](c2c[nH]c3ccc(CCN4C(=O)CNC4=O)cc32)C1` [Example 3] had a Kb in assay [1] of 1910 nM. One may read the pKb as −log10 of the Kb, conventionally taken in molar units. A lower pKb goes with a high Kb. In assay [1], `CN(C)[C@H]1C[C@H](c2c[nH]c3ccc(CCN4C(=O)CC5(CCCCC5)CC4=O)cc32)C1` [Example 8, 3-{2-[3-(trans-3-dimethylaminocyclobutyl)-1H-indol-5-yl]ethyl}-3-azaspiro[5,5]undecane-2,4-dione] yielded a pKb of 7.18. Consider `CNS(=O)(=O)Cc1ccc2[nH]cc([C@H]3C[C@H](N(C)C)C3)c2c1` [Example 10, N-methyl-[3-(trans-3-dimethylaminocyclobutyl)-1H-indol-5-yl]methanesulphonamide], for which the Kb in assay [2] is 5620 nM. On to `CN(C)[C@H]1C[C@H](c2c[nH]c3ccc(CN4C(=O)NC(C)(C)C4=O)cc32)C1` [Example 12, 5,5-dimethyl-3-[3-(trans-3-dimethylaminocyclobutyl)-1H-indol-5-ylmethyl]imidazolidin-2,4-dione], for which the Kb in assay [1] was 589 nM. On to `CN(C)[C@H]1C[C@H](c2c[nH]c3ccc(C[C@H]4COC(=O)N4)cc32)C1` [Example 4, 4-[3-(trans-3-dimethylaminocyclobutyl)-1H-indol-5-ylmethyl]-(4S)oxazolidin-2-one], for which the EC50 in assay [2] (setting [3]) is 1910 nM. The Emax in assay [2] (setting [4]) was 9%. Take `N[C@H]1C[C@H](c2c[nH]c3ccc(C[C@H]4COC(=O)N4)cc32)C1` [Example 1, 4-[3-(trans-3-aminocyclobutyl)-5-indolylmethyl)-(4S)-oxazolidin-2-one]: the “Activity P[A50 ]” value on "5-HT1 -like" receptor is recorded as 7.8. In turn, “4-[3-(trans-3dimethylaminocyclobut-1-ylmethyl)-1H-indol-5-ylmethyl]-(4S)oxazolidin-2-one [Example 19]” came in with a pKb in assay [1] of 5.73.

In the case of `CN(C)[C@H]1C[C@H](c2c[nH]c3ccc(CCN4C(=O)c5ccccc5C4=O)cc32)C1` [Example 7], in assay [1], the Kb was 170 nM. In the case of `CN(C)[C@H]1C[C@H](c2c[nH]c3ccc(CC4CNC(=O)O4)cc32)C1` (single isomer, unassigned; (+)) [Example 21, (+)-5-[3-trans-3-dimethylaminocyclobutyl-1H-indol-5-lmethyl]oxazolidin-2-one], the EC50 in assay [2] (setting [3]) was 3630 nM. In addition, the Emax in assay [2] (setting [4]) came out at 16%. Turning to `CN(C)[C@H]1C[C@H](c2c[nH]c3ccc(Oc4ccccc4)cc32)C1` [Example 17, 5-phenoxy-3-(trans-3-dimethylaminocyclobutyl)-1H-indole], in assay [2], the Kb was 240 nM. On to `CN[C@H]1C[C@H](c2c[nH]c3ccc(C[C@H]4COC(=O)N4)cc32)C1` [Example 22, 4-[3-(trans-3-methylaminocyclobutyl)-1H-indol-5-ylmethyl]-(4S) oxazolidin-2-one], for which, in assay [2] (setting [3]), the EC50 was 708 nM. The Emax in assay [2] (setting [4]) is 72%. In assay [1], `CN(C)[C@H]1C[C@H](c2c[nH]c3ccc(C(=O)NCc4ccccc4)cc32)C1` [Example 23] gave a Kb of 1260 nM.

The compound `CC1(C)NC(=O)N(CCc2ccc3[nH]cc([C@H]4C[C@H](N)C4)c3c2)C1=O` [Example 6, 3-{2-[3-(trans-3-aminocyclobutyl)-1H-indol-5-yl]ethyl}-5,5-dimethylimidazolidin-2,4-dione] gave a Kb in assay [1] of 2690 nM. `CN(C)[C@H]1C[C@H](c2c[nH]c3ccc(CC(=O)NCc4ccccc4)cc32)C1` [Example 26, N-benzyl-3-[trans-3-dimethylaminocyclobutyl]-1H-indol-5-yl acetamide] showed a Kb in assay [1] of 3890 nM. Compound `N[C@H]1C[C@H](c2c[nH]c3ccc(Oc4ccccc4)cc32)C1` [Example 16, 5-phenoxy-3-(trans-3-aminocyclobutyl)-1H-indole] returned a Kb in assay [2] of over 316 nM. The compound `Cc1noc(-c2ccc3[nH]cc([C@H]4C[C@H](N(C)C)C4)c3c2)n1` [Example 18, 3-methyl-5-[3-(trans-3-dimethylaminocyclobutyl)indol-5-yl]-1,2,4-oxadiazole] showed a Kb in assay [2] of 955 nM.
